Source: ChEMBL document CHEMBL1201862, “PubChem BioAssay data set” (2004)
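Interpolation was linear, between the two tested concentrations surrounding the appropriate level; five concentrations were tested over 48 hours in 96-well plates. GI50: concentration for 50% inhibition of growth.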 The source made the active and inactive calls. Rule as the data show it: active = GI50 up to about 1.1 µM and inactive = higher.

What was measured:
Assay in all cases: NCI anticancer screen, dose series, 48 h
SNB-19 = test system: SNB-19
M14 = test system: M14
KM12 = test system: KM12
LOX IMVI = test system: LOX IMVI
T47D = test system: T47D
EKVX = test system: EKVX
CCRF-CEM = test system: CCRF-CEM
A549 = test system: A549
NCI-H226 = test system: NCI-H226
MDA-MB-231 = test system: MDA-MB-231
OVCAR-3 = test system: OVCAR-3
MCF7 = test system: MCF7
UO-31 = test system: UO-31
HOP-92 = test system: HOP-92
UACC-257 = test system: UACC-257
MDA-N = test system: MDA-N
Hs-578T = test system: Hs-578T
ACHN = test system: ACHN
NCI-H23 = test system: NCI-H23
K562 = test system: K562

| SMILES | GI50 (SNB-19) | GI50 (M14) | GI50 (KM12) | GI50 (LOX IMVI) | GI50 (T47D) | GI50 (EKVX) | GI50 (CCRF-CEM) | GI50 (A549) | GI50 (NCI-H226) | GI50 (MDA-MB-231) | GI50 (OVCAR-3) | GI50 (MCF7) | GI50 (UO-31) | GI50 (HOP-92) | GI50 (UACC-257) | GI50 (MDA-N) | GI50 (Hs-578T) | GI50 (ACHN) | GI50 (NCI-H23) | GI50 (K562) |
| --- | --- | --- | --- | --- | --- | --- | --- | --- | --- | --- | --- | --- | --- | --- | --- | --- | --- | --- | --- | --- |
| O=C(O)c1c(-c2nccc3ccccc23)[nH]c(-c2ccccc2)c1S(=O)(=O)O | > 100 µM (inactive) | > 100 µM (inactive) | > 100 µM (inactive) | > 100 µM (inactive) | > 100 µM (inactive) | 21.8 µM (inactive) | > 100 µM (inactive) | > 100 µM (inactive) | > 100 µM (inactive) | > 100 µM (inactive) | > 100 µM (inactive) | > 100 µM (inactive) | > 100 µM (inactive) | > 100 µM (inactive) | > 100 µM (inactive) | > 100 µM (inactive) | > 100 µM (inactive) | > 100 µM (inactive) | > 100 µM (inactive) |  |
| CCOC(=O)C1=C(C)NC(C)=C(C(=O)OCC)C1c1ccc(Cl)cc1 | 16.7 µM (inactive) | 16.6 µM (inactive) | 17.5 µM (inactive) | 16.8 µM (inactive) | 15.6 µM (inactive) | 16.8 µM (inactive) | 1.43 µM (inactive) | 15.4 µM (inactive) |  | 15.3 µM (inactive) | 15.8 µM (inactive) | 17.1 µM (inactive) | 20.3 µM (inactive) | 10.3 µM (inactive) | 13.4 µM (inactive) | 13.2 µM (inactive) | 19.6 µM (inactive) | 16 µM (inactive) | 14.4 µM (inactive) | 9.91 µM (inactive) |
| CC(=O)C(N1CCCCC1)C(O)(C(F)(F)F)C(F)(F)F (configuration not stated) | > 100 µM (inactive) | > 100 µM (inactive) | > 100 µM (inactive) | > 100 µM (inactive) | 43.9 µM (inactive) | > 100 µM (inactive) | 37.3 µM (inactive) | > 100 µM (inactive) | > 100 µM (inactive) | > 100 µM (inactive) | 42.4 µM (inactive) | > 100 µM (inactive) | > 100 µM (inactive) | 54.3 µM (inactive) | > 100 µM (inactive) | > 100 µM (inactive) | 41.1 µM (inactive) | > 100 µM (inactive) | 39.5 µM (inactive) | 50.4 µM (inactive) |
| CCN(CC)N1C(=O)[N-][N+](CC)(CC)C1=O | > 100 µM (inactive) | > 100 µM (inactive) | > 100 µM (inactive) | > 100 µM (inactive) | > 100 µM (inactive) | > 100 µM (inactive) | > 100 µM (inactive) | > 100 µM (inactive) | > 100 µM (inactive) | > 100 µM (inactive) | > 100 µM (inactive) | > 100 µM (inactive) | > 100 µM (inactive) | > 100 µM (inactive) |  | > 100 µM (inactive) | > 100 µM (inactive) | > 100 µM (inactive) | > 100 µM (inactive) |  |
| c1ccc(-c2nc(-c3ccccc3SSc3ccccc3-c3nc(-c4ccccc4)nn3-c3ccccc3)n(-c3ccccc3)n2)cc1 | > 100 µM (inactive) | > 100 µM (inactive) | > 100 µM (inactive) | > 100 µM (inactive) | > 100 µM (inactive) | > 100 µM (inactive) | > 100 µM (inactive) | > 100 µM (inactive) | > 100 µM (inactive) | > 100 µM (inactive) | > 100 µM (inactive) | > 100 µM (inactive) | > 100 µM (inactive) | > 100 µM (inactive) |  | > 100 µM (inactive) | > 100 µM (inactive) | > 100 µM (inactive) | > 100 µM (inactive) | > 100 µM (inactive) |
| Cc1ccc(N2C(=O)C3c4[nH]c5ccc(C)cc5c4C4CCC(C(C)(C)C)CC4C3C2=O)cc1 (configuration not stated) | 26.5 µM (inactive) | 31 µM (inactive) | 18 µM (inactive) | 15 µM (inactive) | 7.5 µM (inactive) | 10.8 µM (inactive) | 7.59 µM (inactive) | 13.6 µM (inactive) | 21.6 µM (inactive) | 10.3 µM (inactive) | 12.1 µM (inactive) | 11.3 µM (inactive) | 37.9 µM (inactive) | 16.1 µM (inactive) | 33.1 µM (inactive) | 21 µM (inactive) | 10.4 µM (inactive) |  | 16.6 µM (inactive) | 4.05 µM (inactive) |
| O=C1Nc2nccnc2C(=O)N2CCC[C@@H]12 | > 100 µM (inactive) | > 100 µM (inactive) | > 100 µM (inactive) | > 100 µM (inactive) | > 100 µM (inactive) | > 100 µM (inactive) | > 100 µM (inactive) | > 100 µM (inactive) | > 100 µM (inactive) | > 100 µM (inactive) | > 100 µM (inactive) | > 100 µM (inactive) | > 100 µM (inactive) | > 100 µM (inactive) | > 100 µM (inactive) | > 100 µM (inactive) | > 100 µM (inactive) | > 100 µM (inactive) | > 100 µM (inactive) | > 100 µM (inactive) |
| CCCCCCN(CCCCCC)C(=S)N/N=C(\C)c1ccccn1 | 1.31 µM (inactive) | 0.76 µM (active) | 1.05 µM (active) | 0.838 µM (active) | 0.269 µM (active) | 0.531 µM (active) | 0.161 µM (active) | 1.52 µM (inactive) | 0.622 µM (active) | 1.15 µM (inactive) | 0.506 µM (active) | 1.53 µM (inactive) | 0.344 µM (active) | 0.906 µM (active) | 1.6 µM (inactive) | 1.32 µM (inactive) | 1.09 µM (active) | 0.703 µM (active) | 1.24 µM (inactive) | 0.105 µM (active) |
| CNC(=O)N(CCC#N)CCCN(C(=O)N(C)C)c1ccccc1 | > 100 µM (inactive) | > 100 µM (inactive) | > 100 µM (inactive) | > 100 µM (inactive) | > 100 µM (inactive) | > 100 µM (inactive) | > 100 µM (inactive) | > 100 µM (inactive) | > 100 µM (inactive) | > 100 µM (inactive) | > 100 µM (inactive) | > 100 µM (inactive) | > 100 µM (inactive) | > 100 µM (inactive) | > 100 µM (inactive) | > 100 µM (inactive) | > 100 µM (inactive) | > 100 µM (inactive) | > 100 µM (inactive) | > 100 µM (inactive) |
| CCOC(=O)C1=CN2C(=N[C@H]3CCCC[C@@H]32)NC1=O | > 100 µM (inactive) | > 100 µM (inactive) | > 100 µM (inactive) | > 100 µM (inactive) | > 100 µM (inactive) | > 100 µM (inactive) | > 100 µM (inactive) | > 100 µM (inactive) | > 100 µM (inactive) | > 100 µM (inactive) | > 100 µM (inactive) | > 100 µM (inactive) | > 100 µM (inactive) | > 100 µM (inactive) | > 100 µM (inactive) | > 100 µM (inactive) | > 100 µM (inactive) | > 100 µM (inactive) | > 100 µM (inactive) | > 100 µM (inactive) |
| Clc1ccc(Cc2nc3ccccc3nc2-c2cccc(Br)c2)cc1 | 1.52 µM (inactive) | 2.32 µM (inactive) | 8.59 µM (inactive) | 1.97 µM (inactive) | 1.87 µM (inactive) | 15.1 µM (inactive) | 1.07 µM (active) | 17 µM (inactive) | 16.9 µM (inactive) | 3.6 µM (inactive) | 2.33 µM (inactive) | 3.17 µM (inactive) | 1.87 µM (inactive) | 0.243 µM (active) | 3.1 µM (inactive) | 1.97 µM (inactive) | 1.69 µM (inactive) | 1.91 µM (inactive) | 13.5 µM (inactive) | 2.8 µM (inactive) |
| CC(C)(C)NC(=S)N/N=C/c1ccccn1 | 7.36 µM (inactive) | 0.0851 µM (active) | 1.94 µM (inactive) |  | < 0.01 µM (active) | 0.0596 µM (active) | < 0.01 µM (active) | 2.13 µM (inactive) | 1 µM (active) | 0.223 µM (active) | < 0.0155 µM (active) | < 0.01 µM (active) | 0.259 µM (active) | 2.65 µM (inactive) | < 0.0467 µM (active) | 1.58 µM (inactive) | > 32.2 µM (inactive) | < 0.0237 µM (active) |  | < 0.01 µM (active) |
| CCOC(=O)C(SCCO)C(C(=O)OCC)n1cnc2c(=O)[nH]c(NC(C)=O)nc21 (configuration not stated) | > 100 µM (inactive) | > 100 µM (inactive) | > 100 µM (inactive) | 51.8 µM (inactive) | > 100 µM (inactive) | > 100 µM (inactive) | > 100 µM (inactive) | > 100 µM (inactive) | > 100 µM (inactive) | > 100 µM (inactive) | > 100 µM (inactive) | > 100 µM (inactive) | > 100 µM (inactive) | > 100 µM (inactive) | > 100 µM (inactive) | > 100 µM (inactive) | > 100 µM (inactive) | > 100 µM (inactive) | > 100 µM (inactive) | > 100 µM (inactive) |
| CN(CCC(=O)O)C1=Nc2ccc(Cl)cc2C(c2ccccc2)=[N+]([O-])C1 | > 100 µM (inactive) | > 100 µM (inactive) | > 100 µM (inactive) | > 100 µM (inactive) | > 100 µM (inactive) | > 100 µM (inactive) | > 100 µM (inactive) | > 100 µM (inactive) | > 100 µM (inactive) | > 100 µM (inactive) | > 100 µM (inactive) | > 100 µM (inactive) | > 100 µM (inactive) | > 100 µM (inactive) | > 100 µM (inactive) | > 100 µM (inactive) | > 100 µM (inactive) | > 100 µM (inactive) | > 100 µM (inactive) | > 100 µM (inactive) |
